# Reference: patent publication US6458391B1, “Compositions comprising oleum Melaleuca” (Safe ′N Sound Solutions, Inc., priority 1998, dated 2002)
# Experiment: Toxicity and tissue irritation
# Settings: 1,8-cineole content of the oil
compound,measurement,value
"CC12CCC(CC1)C(C)(C)O2 [1,8-cineole]",concentration that produces tissue irritation,above 10%
